Like-named read-outs stand apart in the source and are kept apart here.
Tests used:
[1] = Stability in liver microsomes, dog
[2] = Stability in cryopreserved hepatocytes, human; conditions: for AUC: human
[3] = Stability in liver microsomes, human; conditions: for AUC: human
[4] = Stability in cryopreserved hepatocytes, dog; conditions: for AUC: dog
[5] = dog
[6] = Stability in cryopreserved hepatocytes, rat; conditions: for AUC: rat
[7] = rat
[8] = Stability in liver microsomes, rat

SMILES | Trep Concentration 10 min [1] | Trep Concentration 20 min [1] | Trep Concentration 30 min [1] | Trep Concentration 60 min [1] | Trep Concentration (μM) 0 min [2] | Trep Concentration (μM) 15 min [2] | Trep Concentration (μM) 30 min [2] | Trep Concentration (μM) 120 min [2] | AUC [2] | Trep Concentration 0 min [3] | Trep Concentration 10 min [3] | Trep Concentration 30 min [3] | Trep Concentration 60 min [3] | AUC [3] | Trep Concentration (μM) 0 min [4] | Trep Concentration (μM) 15 min [4] | Trep Concentration (μM) 30 min [4] | Trep Concentration (μM) 60 min [4] | AUC [4] | AUC [5] | other results
CCCCCC(CCC1C(O)CC2Cc3c(cccc3OCC(=O)O)CC21)OC(=O)c1ccccc1O (centres unmarked) [LXI] | 0.0115 µM | 0.0157 µM | 0.0196 µM | 0.0259 µM | 0 µM | 0.0213 µM | 0.0378 µM | 0.0701 µM | 5.78 µmol·min/L | 0.0209 µM | 0.0312 µM | 0.0389 µM | 0.0332 µM | 2.05 µmol·min/L | 0 µM | 0 µM | 0.00299 µM | 0.00396 µM | 0.44 µmol·min/L | 1.09 µmol·min/L | Trep Concentration 0 min [1]: 0.00725 µM; Trep Concentration (μM) 60 min [2]: 0.0556 µM; Trep Concentration 20 min [3]: 0.0361 µM; Trep Concentration (μM) 120 min [4]: 0.00663 µM; Trep Concentration (μM) 0 min [6]: 0 µM; Trep Concentration (μM) 15 min [6]: 0 µM; Trep Concentration (μM) 30 min [6]: 0.00373 µM; Trep Concentration (μM) 60 min [6]: 0.00634 µM; Trep Concentration (μM) 120 min [6]: 0.00941 µM; AUC [6]: 0.65 µmol·min/L; AUC [7]: 0.16 µmol·min/L; Trep Concentration 0 min [8]: 0 µM; Trep Concentration 10 min [8]: 0 µM; Trep Concentration 20 min [8]: 0.00316 µM; Trep Concentration 30 min [8]: 0.00337 µM; Trep Concentration 60 min [8]: 0.00402 µM
CCCCCC(CCC1C(O)CC2Cc3c(cccc3OCC(=O)O)CC21)OC(=O)c1ccc(O)cc1 (centres unmarked) [LXVIII] | 0.0246 µM | 0.0324 µM | 0.0375 µM | 0.0382 µM | 0 µM | 0.147 µM | 0.194 µM | 0.17 µM | 20.45 µmol·min/L | 0.201 µM | 0.237 µM | 0.252 µM | 0.178 µM | 13.55 µmol·min/L | 0 µM | 0.0142 µM | 0.00583 µM | 0.00715 µM | 1.05 µmol·min/L | 1.98 µmol·min/L | Trep Concentration 20 min [3]: 0.246 µM; Trep Concentration (μM) 120 min [4]: 0.0129 µM; Trep Concentration (μM) 0 min [6]: 0 µM; Trep Concentration (μM) 15 min [6]: 0 µM; Trep Concentration (μM) 30 min [6]: 0.00403 µM; Trep Concentration (μM) 60 min [6]: 0.00545 µM; Trep Concentration (μM) 120 min [6]: 0.00743 µM; AUC [6]: 0.56 µmol·min/L; AUC [7]: 0.69 µmol·min/L; Trep Concentration 0 min [8]: 0.00607 µM; Trep Concentration 10 min [8]: 0.00792 µM; Trep Concentration 20 min [8]: 0.0105 µM; Trep Concentration 30 min [8]: 0.0127 µM; Trep Concentration 60 min [8]: 0.0145 µM
CCCCCC(CCC1C(O)CC2Cc3c(cccc3OCC(=O)O)CC21)OC(=O)c1ccc(O)c(O)c1 (centres unmarked) [LXVI] | 0 µM | 0 µM | 0.00396 µM | 0.00602 µM | 0 µM | 0.0209 µM | 0.0147 µM | 0.0237 µM | 2.18 µmol·min/L | 0.0131 µM | 0.0155 µM | 0.0168 µM | 0.0141 µM | 0.94 µmol·min/L | 0 µM | 0 µM | 0 µM | 0 µM | 0.16 µmol·min/L | 0.17 µmol·min/L | Trep Concentration 0 min [1]: 0 µM; Trep Concentration (μM) 60 min [2]: 0.0184 µM; Trep Concentration (μM) 120 min [4]: 0.00519 µM; Trep Concentration (μM) 0 min [6]: 0 µM; Trep Concentration (μM) 15 min [6]: 0 µM; Trep Concentration (μM) 30 min [6]: 0 µM; Trep Concentration (μM) 60 min [6]: 0 µM; Trep Concentration (μM) 120 min [6]: 0 µM; AUC [6]: 0.00 µmol·min/L; AUC [7]: 0.26 µmol·min/L; Trep Concentration 0 min [8]: 0 µM; Trep Concentration 10 min [8]: 0.00332 µM; Trep Concentration 20 min [8]: 0.00368 µM; Trep Concentration 30 min [8]: 0.00422 µM; Trep Concentration 60 min [8]: 0.00722 µM
CCCCCC(CCC1C(O)CC2Cc3c(cccc3OCC(=O)O)CC21)OC(=O)COc1ccccc1 (centres unmarked) [LXV] | 0.912 µM | 0.864 µM | 0.801 µM | 0.728 µM | 0.0193 µM | 0.559 µM | 0.515 µM | 0.39 µM | 52.16 µmol·min/L | 0.921 µM | 0.762 µM | 0.594 µM | 0.351 µM | 36.07 µmol·min/L | 0.0135 µM | 0.484 µM | 0.465 µM | 0.406 µM | 47.28 µmol·min/L | 49.22 µmol·min/L | Trep Concentration 0 min [1]: 0.903 µM; Trep Concentration (μM) 60 min [2]: 0.452 µM; Trep Concentration 20 min [3]: 0.67 µM; Trep Concentration (μM) 120 min [4]: 0.373 µM; Trep Concentration (μM) 0 min [6]: 0.0517 µM; Trep Concentration (μM) 15 min [6]: 0.379 µM; Trep Concentration (μM) 30 min [6]: 0.289 µM; Trep Concentration (μM) 60 min [6]: 0.237 µM; Trep Concentration (μM) 120 min [6]: 0.2 µM; AUC [6]: 29.24 µmol·min/L; AUC [7]: 51.11 µmol·min/L; Trep Concentration 0 min [8]: 0.889 µM; Trep Concentration 10 min [8]: 0.898 µM; Trep Concentration 20 min [8]: 0.885 µM; Trep Concentration 30 min [8]: 0.888 µM; Trep Concentration 60 min [8]: 0.738 µM
CCCCCC(CCC1C(O)CC2Cc3c(cccc3OCC(=O)O)CC21)OC(=O)c1cccc(O)c1 (centres unmarked) [LX] | 0.0283 µM | 0.0363 µM | 0.044 µM | 0.059 µM | 0 µM | 0.0671 µM | 0.102 µM | 0.137 µM | 12.95 µmol·min/L | 0.105 µM | 0.14 µM | 0.126 µM | 0.0865 µM | 7.11 µmol·min/L | 0 µM | 0.00428 µM | 0.00492 µM | 0.00784 µM | 0.88 µmol·min/L | 2.51 µmol·min/L | Trep Concentration 0 min [1]: 0.0189 µM; Trep Concentration (μM) 60 min [2]: 0.123 µM; Trep Concentration 20 min [3]: 0.137 µM; Trep Concentration (μM) 0 min [6]: 0 µM; Trep Concentration (μM) 15 min [6]: 0.021 µM; Trep Concentration (μM) 30 min [6]: 0.0343 µM; Trep Concentration (μM) 60 min [6]: 0.0477 µM; Trep Concentration (μM) 120 min [6]: 0.0634 µM; AUC [6]: 5.14 µmol·min/L; AUC [7]: 2.72 µmol·min/L; Trep Concentration 0 min [8]: 0.0226 µM; Trep Concentration 10 min [8]: 0.033 µM; Trep Concentration 20 min [8]: 0.0396 µM; Trep Concentration 30 min [8]: 0.0481 µM; Trep Concentration 60 min [8]: 0.0609 µM
